Results as given in patent US20100104546A1, “MODULATORS OF ANTIGEN-DEPENDENT T CELL PROLIFERATION” (CHILDREN, YOUTH AND WOMEN'S HEALTH SERVICE, priority 2007, published 2010).

System: splenocytes
Test: Ex-vivo antigen (SRBC)-dependent splenocyte proliferation after administration to SRBC-immunized mice (thymidine incorporation)
Assay type: in vivo, Balb/c mice
Method: Mice were immunized with SRBC for 5 days. β-oxa-21:3n-3 was delivered in DMSO and injected intraperitoneally at the indicated doses. After 2 h spleens were removed and single cell suspensions were prepared. The splenocytes were cultured for 3 days in the presence (□), or absence (▪) of SRBC. Thymidine incorporation for final 16 hours of culture was determined. The data is expressed as mean±SEM of 3 separate experiments each in triplicate.
Mice were immunized with SRBC for 5 days. Then β-oxa-21:3n-3 dissolved in syngeneic mouse serum and injected intraperitoneally (A), intravenously (B) or gavaged/orally (C) at the indicated concentrations. After 2 h spleens were removed, single cell suspensions prepared and the splenocytes cultured for 3 days in the presence (▪), or absence (□) of SRBC. Thymidine incorporation for final 16 hours of culture was determined. The data is presented as the mean±SEM of 3 separate experiments separate experiments, each in quintuplets.
Mice were immunized with SRBC. After 5 days they were given β-thia-21:3n-3 at the indicated doses i.p. After 2 hours the spleens were removed and processed into single cell suppressions. These were then cultured in the presence (□), or absence of (▪) of SRBC to assess the proliferation. The results are expressed as mean±SEM of 3 experiments. (B) Effect of β-oxa-21:3n-3 on tetanus toxoid (TT)-induced ex vivo lymphocyte responses. Mice were immunized with TT subcutaneously and after 7 days were given β-oxa-21:3n-3 in mouse serum, intraperitoneally. Two hours later the spleen removed, single cell suspension prepared and examined for lymphoproliferation responses to TT in 5 day cultures. The results are expressed as mean±SEM of 3 experiments.
6-7 weeks old Balb/c mice were injected subcutaneously with 100 μl of 10% sheep red blood cells (IMVS, Inc., Adelaide, Australia) After 5 days 100 ul of β-oxa-21:3n-3 at indicated amounts were injected intraperitoneally, intravenously or gavaged orally. In another experimental set up mice were given β-tha-21:3n-3 i.p. In a third approach mice were infected subcutaneously with 100 μl of Tetanus Toxoid (2,500 Lf/ml). Then 7 days later were given β-oxa-21:3n-3. At indicated time points mice were sacrificed and spleens were removed. Single cell suspensions were prepared and white blood cells (WBC) were enriched by passing through Ficoll-Paque Plus (GE Healthcare). Cells were washed with RPMI-1640 containing 10% fetal bovine serum, 10 mM Hepes, antibiotics and glutamine (RPMI-10) and counted using an automated Cell-Dyne 3500R (Abbott, Inc. MA) instrument. Cells were viable (>98%) as judged by trypan blue exclusion. (β-oxa-21:3n-3)- or vehicle-treated mouse samples (200,000/well) were mixed either with SRBC (600,000/well) with 100 μl of Tetanus toxoid (50 Lf/ml) or phytohaemaglutinin (PHA) (2 μg/ml) or with PHA plus phorbol myristate acetate (PMA) (10 ng/ml) or with PMA plus calcium ionophore A23187 ([…]). Cells were cultured in 96 well U bottom plates (Nunc, Inc. Denmark) for 3 days (except for TT −5 days) at 37° C. under humidified air containing 5% CO2. At some instances 50 μl of supernatants were transferred to a new plate and frozen immediately at −70° C. to be used for cytokine measurements. Thymidine (50 μl, 1 μCi/well) was added at final 16 hours of culture. Cells were harvested and thymidine incorporation was determined using a beta scintillation counter.

CC/C=C\C/C=C\C/C=C\CCCCCCCCOCC(=O)O [β-oxa-21:3n-3]
inhibition of splenocyte proliferation, duration of effect (ex-vivo SRBC challenge 1, 2 and 6 days after single administration (80 mg/kg IP)): significant inhibition | antigen-dependent splenocyte proliferation (intravenous, in syngeneic mouse serum, compared with IP): even more pronounced | antigen-dependent proliferation of splenocytes (orally administered (gavage), in mouse serum): significantly depressed | antigen-dependent proliferation of splenic lymphocytes, ex-vivo (single IP injection in 7% DMSO, 2 h, SRBC pre-sensitized mice): dose-dependent inhibition
